This passage reports EC50 and LC50 results from ChEMBL document CHEMBL1158295, “Five new monotetrahydrofuran ring acetogenins from the leaves of Annona muricata” (J Nat Prod, 1996).

Data set [1] concerns HT-29. The experiment in a line: Cytotoxicity against human HT29 cells. The class given is functional. As to conditions: read-out: ED50 (the source's name).
In data set [2] the test system is MCF7. Put plainly: Cytotoxicity against human MCF7 cells. The class given is functional. As to conditions: read-out: ED50 (the source's name).
Data set [3] concerns A549. Put plainly: Cytotoxicity against human A549 cells. The settings on record: read-out: ED50 (the source's name). The class given is functional.
Data set [4] concerns Artemia. The experiment in a line: Toxicity to brine shrimp. The class given is organism-based. As to conditions: in vivo.
In data set [5] the test system is MIA PaCa-2. Put plainly: Cytotoxicity against human MIAPaCa2 cells. The class given is functional. The settings on record: read-out: ED50 (the source's name).
Data set [6] concerns A498. The experiment in a line: Cytotoxicity against human A498 cells. As to conditions: read-out: ED50 (the source's name). The class given is functional.
The subject of data set [7] is PC-3. The experiment in a line: Cytotoxicity against human PC3 cells. The class given is functional. The settings on record: read-out: ED50 (the source's name).

Values after ≈ are worked out from the molar mass of the structure shown.

`CCCCCCCCCCCC[C@H](O)[C@H](O)CC[C@H](O)[C@@H]1CC[C@@H](C[C@H](O)CCCCC[C@@H](O)CC2=C[C@H](C)OC2=O)O1` [ANNOPENTOCIN C]: the EC50 in data set [1] came out at 1.24 µg/mL (≈ 2.02 µM); in data set [2], 2.97 µg/mL (≈ 4.85 µM); in data set [3], 0.0206 µg/mL (≈ 0.0336 µM); in data set [5], 0.428 µg/mL (≈ 0.698 µM); in data set [6], 0.258 µg/mL (≈ 0.421 µM); in data set [7], 0.228 µg/mL (≈ 0.372 µM). Besides, the LC50 in data set [4] is reported as 13.8 ppm.
Regarding `CCCCCCCCCCCC[C@H](O)[C@@H](O)CC[C@H](O)[C@@H]1CC[C@@H](C[C@H](O)CCCCC[C@@H](O)CC2=C[C@H](C)OC2=O)O1` [ANNOPENTOCIN B], the EC50 came to 1.64 µg/mL (≈ 2.68 µM) in data set [1]; 3.56 µg/mL (≈ 5.81 µM) in data set [2]; 0.0274 µg/mL (≈ 0.0447 µM) in data set [3]; 0.162 µg/mL (≈ 0.264 µM) in data set [5]; 0.379 µg/mL (≈ 0.618 µM) in data set [6]; 0.212 µg/mL (≈ 0.346 µM) in data set [7]. The LC50 in data set [4] is 11.2 ppm.
As for `COc1cccc2c1C(=O)c1c(O)c3c(c(O)c1C2=O)C[C@@](O)(C(=O)CO)C[C@@H]3O[C@H]1C[C@H](N)[C@H](O)[C@H](C)O1` [DOXORUBICIN], the EC50 in data set [1] was found to be 0.0498 µg/mL (≈ 0.0916 µM); in data set [2], 0.495 µg/mL (≈ 0.911 µM); in data set [3], 0.00428 µg/mL (≈ 0.00787 µM); in data set [5] it was 0.00423 µg/mL (≈ 0.00778 µM); in data set [6], 0.0462 µg/mL (≈ 0.085 µM); in data set [7], 0.0583 µg/mL (≈ 0.107 µM). The LC50 in data set [4] came out at 2.57 ×10⁻¹ ppm.
For `CCCCCCCCCCCC[C@@H](O)[C@H](O)CC[C@H](O)[C@@H]1CC[C@@H](C[C@H](O)CCCCC[C@@H](O)CC2=C[C@H](C)OC2=O)O1` [ANNOPENTOCIN A], the EC50 in data set [1] was 1.63 µg/mL (≈ 2.66 µM); in data set [2], 17.9 µg/mL (≈ 29.3 µM); in data set [3], 0.171 µg/mL (≈ 0.279 µM); in data set [5], 0.0358 µg/mL (≈ 0.0584 µM); in data set [6], 0.607 µg/mL (≈ 0.99 µM); in data set [7], 1.14 µg/mL (≈ 1.86 µM). Further, the LC50 in data set [4] is reported as 8.9 ppm.
